Assay [1] addresses T1, Vasopressin V2 receptor (Sus scrofa, UniProt P32307). In words: Tested for inhibition of vasopressin-stimulated adenylate cyclase of medullary membranes of pig kidney.
The target in assay [2] is T1, Vasopressin V2 receptor. In words: Tested for inhibition of [3H]LVP binding to vasopressin receptor in medullary membranes of pig kidney. It counts as cell membranes.
The test system of assay [3] is Rattus norvegicus. In words: Dose required to lower urine osmolality to 300 mOsm/kg in rat. It counts as functional.

Numbered stars: 1 amine (or outer) side, 2 acyl side, 3 side chain; on linkers, the order of the positions; unused ones are H or OH. Bridge positions count the residues as written; N and C are the ends. Square brackets hold non-standard residues; d marks the D form. Peptide text beside a SMILES is read from it. * marks the point of attachment. X1 = O=C(CC1(S[*:2])CCCCC1)[*:1]; NH(CH2)5NH2 = NCCCCCN*

The source of these data is ChEMBL document CHEMBL1122859, “Novel vasopressin analogues that help define a minimum effective antagonist pharmacophore” (J Med Chem, 1985).

T1 sequence (P32307 whole entry): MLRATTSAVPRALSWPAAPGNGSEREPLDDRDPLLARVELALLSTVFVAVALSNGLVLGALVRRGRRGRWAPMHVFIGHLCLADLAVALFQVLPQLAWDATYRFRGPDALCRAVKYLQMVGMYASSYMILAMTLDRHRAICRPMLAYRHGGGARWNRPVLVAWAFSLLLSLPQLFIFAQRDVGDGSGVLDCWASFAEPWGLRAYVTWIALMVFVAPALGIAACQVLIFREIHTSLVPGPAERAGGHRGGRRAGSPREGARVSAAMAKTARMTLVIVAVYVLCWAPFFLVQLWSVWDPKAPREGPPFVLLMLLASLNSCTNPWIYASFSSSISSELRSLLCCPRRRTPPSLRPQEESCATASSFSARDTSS

Consider `CCOc1ccc(C[C@H]2NC(=O)CC3(CCCCC3)SSC[C@@H](C(=O)N[C@@H](CCCCN)C(N)=O)NC(=O)[C@H](CC(N)=O)NC(=O)[C@H](C(C)C)NC(=O)[C@H](Cc3ccccc3)NC2=O)cc1` [listing 1 of 2 here], for which the Ki in assay [1] worked out at 5.8 nM; in assay [2], 26 nM.

In assay [3], `CCOc1ccc(C[C@H]2NC(=O)CC3(CCCCC3)SSC[C@@H](C(=O)N3CCC[C@H]3C(=O)NCCCCCN)NC(=O)[C@H](CC(N)=O)NC(=O)[C@H](C(C)C)NC(=O)[C@H](Cc3ccccc3)NC2=O)cc1` ([dY](Et)FVNCP-{NH(CH2)5NH2}; linker N-5 via X1) [listing 1 of 2 here] yielded an ED300 of 27 µg/kg.

In the case of `CCOc1ccc(C[C@H]2NC(=O)CC3(CCCCC3)SSC[C@@H](C(=O)N3CCC[C@H]3C(=O)N[C@@H](CCCCN)C(N)=O)NC(=O)[C@H](CC(N)=O)NC(=O)[C@H](C(C)C)NC(=O)[C@H](Cc3ccccc3)NC2=O)cc1` [listing 1 of 2 here], the ED300 in assay [3] was determined as 22 µg/kg.

As to `CCOc1ccc(C[C@H]2NC(=O)CC3(CCCCC3)SSC[C@@H](C(=O)N[C@@H](CCCCN)C(N)=O)NC(=O)[C@H](CC(N)=O)NC(=O)[C@H](C(C)C)NC(=O)[C@H](Cc3ccccc3)NC2=O)cc1` [listing 2 of 2 here], the ED300 in assay [3] worked out at 59 µg/kg.

Consider `CCOc1ccc(C[C@H]2NC(=O)CC3(CCCCC3)SSC[C@@H](C(=O)N3CCC[C@H]3C(=O)N[C@@H](CCCCN)C(N)=O)NC(=O)[C@H](CC(N)=O)NC(=O)[C@H](C(C)C)NC(=O)[C@H](Cc3ccccc3)NC2=O)cc1` [listing 2 of 2 here], for which the Ki in assay [1] turned out to be 9.4 nM; in assay [2] it was 37 nM.

With `CCOc1ccc(C[C@H]2NC(=O)CC3(CCCCC3)SSC[C@@H](C(=O)N3CCC[C@H]3C(=O)NCCCCCN)NC(=O)[C@H](CC(N)=O)NC(=O)[C@H](C(C)C)NC(=O)[C@H](Cc3ccccc3)NC2=O)cc1` ([dY](Et)FVNCP-{NH(CH2)5NH2}; linker N-5 via X1) [listing 2 of 2 here], the Ki was 7.2 nM in assay [1] and 30 nM in assay [2].

In assay [3], `CCOc1ccc(C[C@H]2NC(=O)CC3(CCCCC3)SSC[C@@H](C(=O)NCCCCCN)NC(=O)[C@H](CC(N)=O)NC(=O)[C@H](C(C)C)NC(=O)[C@H](Cc3ccccc3)NC2=O)cc1` [listing 1 of 2 here] came in with an ED300 of 94 µg/kg.

On to `CCOc1ccc(C[C@H]2NC(=O)CC3(CCCCC3)SSC[C@@H](C(=O)N3CCC[C@H]3C(=O)N[C@@H](CCCN=C(N)N)C(=O)NCC(N)=O)NC(=O)[C@H](CC(N)=O)NC(=O)[C@H](C(C)C)NC(=O)[C@H](Cc3ccccc3)NC2=O)cc1` ([dY](Et)FVNCPRG-NH2; linker N-5 via X1), for which, in assay [3], the ED300 worked out at 11.2 µg/kg.

`CCOc1ccc(C[C@H]2NC(=O)CC3(CCCCC3)SSC[C@@H](C(=O)NCCCCCN)NC(=O)[C@H](CC(N)=O)NC(=O)[C@H](C(C)C)NC(=O)[C@H](Cc3ccccc3)NC2=O)cc1` [listing 2 of 2 here]: the Ki in assay [1] was 6.8 nM; in assay [2], 19 nM.

Compound `CCOc1ccc(C[C@H]2NC(=O)CC3(CCCCC3)SSC[C@@H](C(=O)N3CCC[C@H]3C(=O)N[C@@H](CCCNC(=N)N)C(N)=O)NC(=O)[C@H](CC(N)=O)NC(=O)[C@H](C(C)C)NC(=O)[C@H](Cc3ccccc3)NC2=O)cc1` ([dY](Et)FVNCPR-NH2; linker N-5 via X1) displayed an ED300 in assay [3] of 9.2 µg/kg.

The term Ki denotes a measure of affinity in units of concentration, obtained from inhibition or displacement. Low readings indicate a stronger hold on the target, high ones a looser hold on the target.
